The values that follow come from patent publication US12172995B2, “Substituted indole and indazole compounds” (BRISTOL-MYERS SQUIBB COMPANY, priority 2018, dated 2024).

SMILES strings stand for the structures.

Common to all, as to assay type: cell-based
Experiment [1] addresses T1, human TLR7 (Homo sapiens, UniProt Q9NYK1).
T1 construct: host or cells: HEK-Blue cells
T1 sequence (Q9NYK1 27-1049): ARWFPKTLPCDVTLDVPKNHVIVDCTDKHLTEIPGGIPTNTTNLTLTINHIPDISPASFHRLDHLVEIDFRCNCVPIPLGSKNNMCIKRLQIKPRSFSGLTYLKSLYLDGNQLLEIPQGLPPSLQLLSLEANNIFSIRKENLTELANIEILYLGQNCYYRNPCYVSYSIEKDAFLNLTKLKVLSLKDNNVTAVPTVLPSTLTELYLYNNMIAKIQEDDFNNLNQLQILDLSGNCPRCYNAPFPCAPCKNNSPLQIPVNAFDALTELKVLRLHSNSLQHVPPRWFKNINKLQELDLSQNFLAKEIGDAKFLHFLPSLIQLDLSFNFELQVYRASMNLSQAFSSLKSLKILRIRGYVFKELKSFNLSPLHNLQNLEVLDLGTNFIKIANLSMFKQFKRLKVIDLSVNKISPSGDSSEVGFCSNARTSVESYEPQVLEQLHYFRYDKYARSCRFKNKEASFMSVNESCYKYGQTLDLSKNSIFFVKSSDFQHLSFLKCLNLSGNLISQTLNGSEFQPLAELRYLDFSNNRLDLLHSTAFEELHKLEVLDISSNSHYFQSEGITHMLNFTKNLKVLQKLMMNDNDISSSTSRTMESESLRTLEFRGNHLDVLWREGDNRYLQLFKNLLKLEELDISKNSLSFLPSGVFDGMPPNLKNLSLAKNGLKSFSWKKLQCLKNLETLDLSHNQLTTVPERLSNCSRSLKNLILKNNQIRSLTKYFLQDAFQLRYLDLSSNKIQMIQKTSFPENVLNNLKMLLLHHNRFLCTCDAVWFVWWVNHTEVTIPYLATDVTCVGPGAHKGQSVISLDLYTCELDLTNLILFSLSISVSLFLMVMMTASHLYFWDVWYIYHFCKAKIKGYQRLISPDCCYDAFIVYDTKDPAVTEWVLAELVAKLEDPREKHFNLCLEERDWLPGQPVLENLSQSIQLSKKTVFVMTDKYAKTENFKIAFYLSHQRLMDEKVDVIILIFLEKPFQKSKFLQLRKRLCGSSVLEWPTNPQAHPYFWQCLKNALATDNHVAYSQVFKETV
The experiment can be described thus: TLR7 inhibition reporter assay (HEK-Blue SEAP). The settings on record: HEK-Blue cells overexpressing human TLR7, stimulated with gardiquimod 7.5 μM, 22 hour incubation. The method in brief:
(§1)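 Reporter HEK-Blue lines; cpd 0.05 nM–50 μM, 30 min preincubation RT; agonist: TLR7 gardiquimod 7.5 μM, TLR8 R848 15.9 μM, TLR9 ODN2006 5 nM; 22 h 37 °C; SEAP detected colorimetrically; % inhib vs known inhibitor.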
On the technique in general: A reporter such as luciferase makes a cellular process visible.

Experiment [2] addresses T2, human TLR8 (Homo sapiens, UniProt Q9NR97).
T2 construct: host or cells: HEK-Blue cells
T2 sequence (Q9NR97 27-1041): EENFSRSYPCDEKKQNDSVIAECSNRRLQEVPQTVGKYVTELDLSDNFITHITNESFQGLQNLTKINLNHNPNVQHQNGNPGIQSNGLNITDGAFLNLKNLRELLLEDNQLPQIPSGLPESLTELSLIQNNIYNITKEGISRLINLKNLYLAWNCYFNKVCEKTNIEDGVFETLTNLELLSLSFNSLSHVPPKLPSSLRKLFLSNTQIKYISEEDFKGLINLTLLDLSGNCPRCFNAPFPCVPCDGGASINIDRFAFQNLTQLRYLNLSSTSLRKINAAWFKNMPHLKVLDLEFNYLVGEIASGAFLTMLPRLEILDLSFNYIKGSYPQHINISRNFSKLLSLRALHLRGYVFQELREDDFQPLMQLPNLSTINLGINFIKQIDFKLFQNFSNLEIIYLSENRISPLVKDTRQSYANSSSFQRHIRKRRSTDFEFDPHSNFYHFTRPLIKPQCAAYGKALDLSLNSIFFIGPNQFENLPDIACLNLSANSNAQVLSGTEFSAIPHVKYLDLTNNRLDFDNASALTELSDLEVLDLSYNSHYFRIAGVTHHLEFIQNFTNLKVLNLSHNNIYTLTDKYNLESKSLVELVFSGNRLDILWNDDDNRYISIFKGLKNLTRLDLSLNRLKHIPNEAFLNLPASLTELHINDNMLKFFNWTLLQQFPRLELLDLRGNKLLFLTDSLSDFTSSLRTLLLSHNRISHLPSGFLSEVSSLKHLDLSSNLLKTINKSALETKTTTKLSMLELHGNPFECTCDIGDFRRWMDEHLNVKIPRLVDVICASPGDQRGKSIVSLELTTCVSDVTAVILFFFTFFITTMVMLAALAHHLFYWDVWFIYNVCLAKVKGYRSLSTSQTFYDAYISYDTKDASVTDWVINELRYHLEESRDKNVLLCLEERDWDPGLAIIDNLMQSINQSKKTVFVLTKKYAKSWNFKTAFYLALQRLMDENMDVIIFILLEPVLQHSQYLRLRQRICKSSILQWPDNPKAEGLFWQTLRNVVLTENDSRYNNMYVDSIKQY
As to the kind of experiment: TLR8 inhibition reporter assay (HEK-Blue SEAP). The settings on record: HEK-Blue cells overexpressing human TLR8, stimulated with R848 15.9 μM, 22 hour incubation. The method in brief:
as §1

Experiment [3] addresses T3, human TLR9 (Homo sapiens, UniProt Q9NR96).
T3 construct: host or cells: HEK-Blue cells
T3 sequence (Q9NR96 26-1032): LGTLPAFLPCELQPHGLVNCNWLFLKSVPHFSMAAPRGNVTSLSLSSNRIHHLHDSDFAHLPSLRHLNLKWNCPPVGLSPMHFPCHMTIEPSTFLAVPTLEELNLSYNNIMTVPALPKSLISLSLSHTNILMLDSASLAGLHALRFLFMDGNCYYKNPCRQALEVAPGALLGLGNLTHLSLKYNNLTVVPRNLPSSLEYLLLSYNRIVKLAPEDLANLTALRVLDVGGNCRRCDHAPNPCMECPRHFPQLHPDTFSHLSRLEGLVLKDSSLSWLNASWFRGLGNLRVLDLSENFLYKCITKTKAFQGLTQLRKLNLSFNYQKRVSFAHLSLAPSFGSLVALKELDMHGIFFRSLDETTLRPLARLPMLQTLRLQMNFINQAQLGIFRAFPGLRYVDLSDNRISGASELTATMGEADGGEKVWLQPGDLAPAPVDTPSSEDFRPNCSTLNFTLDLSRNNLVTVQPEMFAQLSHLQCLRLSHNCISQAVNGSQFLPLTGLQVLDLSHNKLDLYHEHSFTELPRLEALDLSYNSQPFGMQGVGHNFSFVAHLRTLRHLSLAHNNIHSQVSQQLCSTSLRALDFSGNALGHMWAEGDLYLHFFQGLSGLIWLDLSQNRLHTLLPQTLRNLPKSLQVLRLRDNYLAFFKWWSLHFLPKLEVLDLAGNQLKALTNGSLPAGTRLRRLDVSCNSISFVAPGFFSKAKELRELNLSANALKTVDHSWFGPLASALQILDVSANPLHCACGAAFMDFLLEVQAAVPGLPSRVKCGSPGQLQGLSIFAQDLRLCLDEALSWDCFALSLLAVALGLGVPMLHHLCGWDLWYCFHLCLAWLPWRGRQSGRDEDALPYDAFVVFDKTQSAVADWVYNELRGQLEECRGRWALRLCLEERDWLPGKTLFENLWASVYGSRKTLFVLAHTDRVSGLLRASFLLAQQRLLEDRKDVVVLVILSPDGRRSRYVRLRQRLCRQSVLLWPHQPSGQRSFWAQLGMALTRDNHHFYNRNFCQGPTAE
The experiment can be described thus: TLR9 inhibition reporter assay (HEK-Blue SEAP). The settings on record: HEK-Blue cells overexpressing human TLR9, stimulated with ODN2006 5 nM, 22 hour incubation. A digest of the protocol: as §1

As a reminder, the IC50 is the concentration that gives 50% inhibition. Turning to `CCc1cc(-c2cc(C)c3ncnn3c2)cc2[nH]nc(OC3CCC(N(C)C)CC3)c12` (single isomer, unassigned) [Example 168, 4-((4-ethyl-6-(8-methyl-[1,2,4]triazolo[1,5-a]pyridin-6-yl)-1H-indazol-3-yl)oxy)-N,N-dimethylcyclohexan-1-amine], the IC50 came to 1.9 nM in experiment [1], 1.6 nM in experiment [2] and 2570 nM in experiment [3].

Take `CCc1cc(-c2cc(C)c3ncnn3c2)cc2[nH]nc(OC3CCC(N(C)C)CC3)c12` (single isomer, unassigned) [Example 169, 4-((4-ethyl-6-(8-methyl-[1,2,4]triazolo[1,5-a]pyridin-6-yl)-1H-indazol-3-yl)oxy)-N,N-dimethylcyclohexan-1-amine]: the figures for the IC50 in experiment [1], in experiment [2] and in experiment [3] were 1.2 nM, 0.5 nM and 1830 nM, respectively.

Turning to `Cc1cc(-c2cc(C)c3ncnn3c2)cc2[nH]nc(OC3CCC(N(C)C)CC3)c12` (single isomer, unassigned) [Example 179, N,N-dimethyl-4-((4-methyl-6-(8-methyl-[1,2,4]triazolo[1,5-a]pyridin-6-yl)-1H-indazol-3-yl)oxy)cyclohexan-1-amine], the IC50 is 3.3 nM in experiment [1], 8.5 nM in experiment [2] and 2080 nM in experiment [3].

On to `Cc1cc(-c2cc(C)c3ncnn3c2)cc2[nH]nc(OC3CCC(N(C)C)CC3)c12` (single isomer, unassigned) [Example 180, N,N-dimethyl-4-((4-methyl-6-(8-methyl-[1,2,4]triazolo[1,5-a]pyridin-6-yl)-1H-indazol-3-yl)oxy)cyclohexan-1-amine], for which the IC50 in experiment [1] came out at 2.6 nM; in experiment [2], 2.3 nM; in experiment [3], 3260 nM.

In the case of `Cc1cc2c(OC3CCC(N(C)C)CC3)n[nH]c2cc1-c1cc(C)c2ncnn2c1` (single isomer, unassigned) [Example 181, N,N-dimethyl-4-((5-methyl-6-(8-methyl-[1,2,4]triazolo[1,5-a]pyridin-6-yl)-1H-indazol-3-yl)oxy)cyclohexan-1-amine], the IC50 in experiment [1] was 71.7 nM; in experiment [2], 19.9 nM; in experiment [3], not below 50000 nM.

For `Cc1cc2c(OC3CCC(N(C)C)CC3)n[nH]c2cc1-c1cc(C)c2ncnn2c1` (single isomer, unassigned) [Example 182, N,N-dimethyl-4-((5-methyl-6-(8-methyl-[1,2,4]triazolo[1,5-a]pyridin-6-yl)-1H-indazol-3-yl)oxy)cyclohexan-1-amine], the results for the IC50 in experiment [1], in experiment [2] and in experiment [3] were 25.9 nM, 5.8 nM and 27400 nM, respectively.

With `COc1cc(-c2cc(C)c3c(OC4CCC(N(C)C)CC4)n[nH]c3c2)cn2ncnc12` (single isomer, unassigned) [Example 183, 4-((6-(8-methoxy-[1,2,4]triazolo[1,5-a]pyridin-6-yl)-4-methyl-1H-indazol-3-yl)oxy)-N,N-dimethylcyclohexan-1-amine], the figures for the IC50 in experiment [1], in experiment [2] and in experiment [3] were 4.9 nM, 8.1 nM and 2310 nM, respectively.

On to `COc1cc(-c2cc(C)c3c(OC4CCC(N(C)C)CC4)n[nH]c3c2)cn2ncnc12` (single isomer, unassigned) [Example 184, 4-((6-(8-methoxy-[1,2,4]triazolo[1,5-a]pyridin-6-yl)-4-methyl-1H-indazol-3-yl)oxy)-N,N-dimethylcyclohexan-1-amine], for which the IC50 in experiment [1] amounted to 1.8 nM; in experiment [2], 1.8 nM; in experiment [3], 1190 nM.

On to `Cc1cc(-c2cc(C)c3ncnn3c2)cc2[nH]nc(OC3CCC(NCC(=O)N(C)C)CC3)c12` (single isomer, unassigned) [Example 185, N,N-dimethyl-2-((4-((4-methyl-6-(8-methyl-[1,2,4]triazolo[1,5-a]pyridin-6-yl)-1H-indazol-3-yl)oxy)cyclohexyl)amino)acetamide], for which the values for the IC50 in experiment [1], in experiment [2] and in experiment [3] were 20.9 nM, 9.5 nM and 2770 nM, respectively.

For `Cc1cc(-c2cc(C)c3ncnn3c2)cc2[nH]nc(OC3CCC(NCC(=O)N(C)C)CC3)c12` (single isomer, unassigned) [Example 186, N,N-dimethyl-2-((4-((4-methyl-6-(8-methyl-[1,2,4]triazolo[1,5-a]pyridin-6-yl)-1H-indazol-3-yl)oxy)cyclohexyl)amino)acetamide], the IC50 in experiment [1] came to 2.4 nM; in experiment [2], 1.9 nM; in experiment [3] it was 2550 nM.

For `Cc1cc(-c2cc(C)c3ncnn3c2)cc2[nH]nc(OC3CCC(NC4CC4)CC3)c12` (single isomer, unassigned) [Example 189, N-cyclopropyl-4-((4-methyl-6-(8-methyl-[1,2,4]triazolo[1,5-a]pyridin-6-yl)-1H-indazol-3-yl)oxy)cyclohexan-1-amine], the IC50 is 12.2 nM in experiment [1], 8.2 nM in experiment [2] and 2340 nM in experiment [3].
